In patent US6706699B2, “Quinolines and uses thereof” (Ariad Pharmaceuticals, Inc., priority 2001, dated 2004):

Assay: Hydroxyapatite assay (hydroxyapatite adsorption chromatography, bone-targeting potential)
Assay type: physicochemical
Details: corrected retention K=(retention time−void time)/void on TSK-Gel HA 1000 column; linear gradient 10 mM to 500 mM sodium phosphate, 0.15 N NaCl, pH 6.8
Description: Hydroxyapatite is the principal mineral component of bone. Hydroxyapatite adsorption chromatography is used as an assay to evaluate the bone-targeting potential of both individual bone-targeting moieties (“monomers”) and of pharmaceuticals incorporating bone-targeting groups.
Method: The rentention time of a test compound is measured using a linear gradient from 10 mM sodium phosphate, 0.15 N NaCl, pH=6.8 to 500 mM sodium phosphate, 0.15 N NaCl, […] on a TSK-Gel HA 1000 high pressure liquid chromatography column (7.5 mm×75 mm). […] This K value is corrected using two reference compounds to correct from inter-column and inter-system variation to obtain a K′ value.
Reference Compounds: K′ values were determined for known bone targeted compounds, the bisphosphonate, alendronate and tetracycline.

## NCCCC(O)(P(=O)(O)O)P(=O)(O)O [Alendronate, alendronate]
  K′ value: 3.7
